Results reported in patent publication US10420761B2, “Allosteric inhibitors of thymidylate synthase” (UNIVERSITY OF FLORIDA RESEARCH FOUNDATION, INCORPORATED, priority 2013, dated 2019).
Like-named read-outs stand apart in the source and are kept apart here.

Assays:
[1] = tested on: pancreatic ductal adenocarcinoma cell line Miapaca-2; test: MTS cell viability assay, MiaPaca-2; assay type: cell-based; conditions: Homo sapiens, MIA PaCa-2, PDAC, 72-hour incubation, unit inferred
Experimental: (§1) Antiproliferative effects of 27 novel TS inhibitors were tested by MTS assay (Promega) in human cancer cell lines representing several major tumor types known to overexpress TS including lung, cervical, pancreatic and hematopoietic tumors. Six compounds (S, U, P, M, G and J) reduced cell viability by more than 40% in both human cervical cancer HeLa (FIG. 6) and myelogenous leukemia K562 cell lines (FIG. 7).
(§2) Complete dose response relationships for five most promising compounds (P, U, S, M and G) have been established in pancreatic neuroendocrine cancer, pancreatic ductal cancer and small cell lung cancer cell lines (Table 3). […] In pancreatic neuroendocrine tumors Bon1 and CM—the range was larger with GI50 values within 0.1-100 μM (FIGS. 10, 11). Such discrepancy in response to drugs between Bon1 and CM cells can be explained at least in part by different tumor type of these cells. CM cells were derived from insulinoma, a typical beta cell tumor that secrets insulin while Bon cells are carcinoid tumors derived from lymph nodes that produce serotonin.
(§3) 27 top scoring compounds that were identified by in silico screening were tested in human cancer cell lines. Cancer cell lines used for inhibitor testing were maintained under 70% confluency in appropriate cell culture medium (typically DMEM, supplemented with 10% FBS, and 1% pen-strep). Small molecule compounds were obtained from NCI DTP, resuspended in DMSO to generate 50 mM stocks and stored in the dark. In all experiments, fresh compound preparations were used whenever possible and no more than 2 freeze-thaw cycles were allowed for all drug tested. Cells were seeded in 96-well plates in quadruplicates (4 wells/condition) at 4000 cells/well. Compound solutions were freshly prepared in the appropriate cell culture medium and were added the following morning to the cells. After 72-hour incubation with the compound, cell proliferation was measured by MTS assays (Promega) and compared to that of the untreated cells or control drug, such as 5-FU or pemetrexed. Dose-response parameters were determined by plotting percent cell proliferation after treatment from at least eight different compound concentrations and by using non-linear regression fit (4-parameter dose-response) in Sigmaplot. All results shown are representative of at least 3 independent experiments.

[2] = tested on: small cell lung cancer cell line H1607; test: MTS cell viability assay, H1607; assay type: cell-based; conditions: Homo sapiens, SCLC, 72-hour incubation, unit inferred
Experimental: as §1, §2, §3

[3] = tested on: pancreatic ductal adenocarcinoma cell line Panc-1; test: MTS cell viability assay, Panc-1; assay type: cell-based; conditions: Homo sapiens, PDAC, 72-hour incubation, unit inferred
Experimental: as §1, §2, §3

[4] = tested on: pancreatic neuroendocrine cell line Bon1; test: MTS cell viability assay, Bon-1; assay type: cell-based
Experimental: as §1, §2, §3

[5] = tested on: pancreatic neuroendocrine cell line CM (insulinoma); test: MTS cell viability assay, CM; assay type: cell-based
Experimental: as §1, §2, §3

[6] = tested on: small cell lung cancer cell line H1048; test: MTS cell viability assay, H1048; assay type: cell-based; conditions: Homo sapiens, NCI-H1048
Experimental: as §1, §2, §3

human cancer cell lines = test: MTS cell viability assay, statements over several cell lines; assay type: cell-based; conditions: for GI50: Homo sapiens
Experimental: as §1, §2
(§4) We also tested the compounds S, U and P in mouse histiocytic sarcoma cell line that was derived from genetically engineered mouse model with p16 deletion and activated hTS overexpression. […] Dose-response curves and GI50 values for all compounds tested can be found in Table 3 and FIGS. 8-13.
as §3

[7] = assay type: in vivo
Experimental: To establish the maximum tolerated dose (MTD) for most promising new inhibitors, both immunodeficient SCID and immunocompetent FVB.129 mice were treated daily with compound S and methylated version of compound S at 12.5, 50, and 100 MKG (mg/kg) by i.p. injection (Tables 4 and 5). SCID immunodeficient mice were i.p. injected daily for 3 weeks and kept under observation for one additional week. Animals' weights were measured daily and the data is presented as the percentage of weight change from day 1 of treatment to day 28 at the termination of the experiment (Table 4). FVB.129 immunocompetent mice were i.p. injected daily for 2 weeks and kept under observation for one additional week. Animals' weights were measure daily and the data is presented as the percentage of weight change from day 1 of treatment to day 21 at the termination of the experiment (Table 5).
The SCID immunodeficient mice were i.p. injected daily for 3 weeks and kept under observation for one additional week. Animals' weights were measured daily and the data are presented as the percentage of weight change from day 1 of treatment to day 28 at the termination of the experiment (Table 4). The MTD for SCID mice for both compounds was 50 MKG. The FVB.129 immunocompetent mice were i.p. injected daily for 2 weeks and kept under observation for one additional week. Animals' weights were measured daily and the data are presented as the percentage of weight change from day 1 of treatment to day 21 at the termination of the experiment (Table 5). […] Thus, we have identified a derivative of compounds S that is less toxic to immunocompetent FVB.129 mice.

in vivo = test: in vivo
Experimental: (§5) SCID immunodeficient mice were i.p. injected daily for 3 weeks and kept under observation for one additional week. Animals' weights were measured daily and the data is presented as the percentage of weight change from day 1 of treatment to day 28 at the termination of the experiment (Table 4). FVB.129 immunocompetent mice were i.p. injected daily for 2 weeks and kept under observation for one additional week. Animals' weights were measure daily and the data is presented as the percentage of weight change from day 1 of treatment to day 21 at the termination of the experiment (Table 5).
as §5, with “The SCID immunodeficient” for “SCID immunodeficient”, “the data are presented as” for “the data is presented as”, “(Table 4). […] The FVB.129 immunocompetent” for “(Table 4). FVB.129 immunocompetent”, “weights were measured daily and” for “weights were measure daily and”

[8] = tested on: mouse histiocytic sarcoma cell line 5278mHS (p16 deletion, activated hTS); test: MTS cell viability assay, mouse histiocytic sarcoma; assay type: cell-based
Experimental: as §4, §3

[9] = PNET, 72-hour incubation, MTS, unit inferred, read-out: GI50 Bon-1
[10] = PNET, 72-hour incubation, MTS, unit inferred, read-out: GI50 CM
[11] = SCLC, 72-hour incubation, MTS, unit inferred, read-out: GI50 H1048
[12] = NCI-H1048, range over small cell lung cancer cell lines H1607 and H1048 and the five compounds, read-out: GI50 values in the range
[13] = range over pancreatic ductal adenocarcinoma cell lines Miapaca-2 and Panc-1 and the five compounds, read-out: GI50 values between
[14] = up to, over the tested cell lines
[15] = mouse histiocytic sarcoma cell line, range over compounds S, U and P, read-out: GI50 values from
[16] = mouse histiocytic sarcoma, MTS, unit inferred, read-out: GI50 5278mHS

| Compound | GI50 [1] | GI50 [2] | GI50 [3] | GI50 [4, 9] | GI50 [5, 10] | GI50 [6, 11] | GI50 (human cancer cell lines; [12]) | GI50 (human cancer cell lines; [13]) | fold lower GI50 than 5-FU (human cancer cell lines; [14]) | fold lower GI50 than pemetrexed (human cancer cell lines; [14]) | GI50 ([4]; Bon1 cells, read-out: GI50) | GI50 ([5]; CM (insulinoma), read-out: GI50) | animal found dead, D6 ([7]; FVB.129 mice, 50 MKG i.p. daily, single mice) | animal found dead, D5 ([7]; FVB.129 mice, 100 MKG i.p. daily, single mice) | day after treatment at which animals died ([7]; FVB.129, mouse, in vivo, ip, 2 weeks) | animal found dead, D2 (in vivo; SCID mice, 100 MKG i.p. daily, single mice) | MTD at 3 weeks (in vivo; SCID, mouse, in vivo, ip, MTD) | GI50 [8, 15] | GI50 [8, 16] | GI50 ([6]; H1048 (SCLC), read-out: GI50) |
| --- | --- | --- | --- | --- | --- | --- | --- | --- | --- | --- | --- | --- | --- | --- | --- | --- | --- | --- | --- | --- |
| Nc1nc2[nH]cc(CCc3ccc(C(=O)N[C@@H](CCC(=O)O)C(=O)O)cc3)c2c(=O)[nH]1 [Pemetrexed, pemetrexed, reference compound] | > 200 µM | > 200 µM | > 200 µM | > 200 µM | 0.087 µM | 0.13 µM |  |  |  |  |  |  |  |  |  |  |  |  |  |  |
| COc1ccc(Cc2c[nH]cc3c(=O)c(OC)ccc2-3)cc1O [Compound M, 4-(3-hydroxy-4-methoxybenzyl)-7-methoxyisoquinolin-8(2H)-one] | 24 µM | 2.6 µM | 15 µM | 26 µM | 29 µM | 16 µM | 0.09 to 29 µM | 0.5 to 24 µM |  |  |  |  |  |  |  |  |  |  |  |  |
| CCc1nc(N)nc(N)c1-c1ccc(N(C)Cc2ccccc2)c([N+](=O)[O-])c1 [Compound S, 5-[4-[benzyl(methyl)amino]-3-nitrophenyl]-6-ethylpyrimidine-2,4-diamine] | 0.48 µM | 8.2 µM | 0.93 µM | 100 µM | 0.093 µM | 0.096 µM | 0.09 to 29 µM | 0.5 to 24 µM | up to 169 fold | up to 416 fold | 100 µM | 0.093 µM | FDN | FDN | 6 days | FDN | ≥ 50 mg/kg | 0.4 to 20 µM | 0.42 µM | 0.096 µM |
| O=c1[nH]cc(F)c(=O)[nH]1 [Compound 5-FU, 5-fluorouracil, reference compound] | 8.1 µM | 36 µM | 11 µM | 7.6 µM | 16 µM | 2.3 µM |  |  |  |  |  |  |  |  |  |  |  |  |  |  |
| CCN(CC)C1=CC(=O)/C(=N/Nc2cc(Br)ccn2)C=C1 [U, (E)-6-(2-(4-bromopyridin-2-yl)hydrazono)-3-(diethylamino)cyclohexa-2,4-dienone] | 12 µM | 2.5 µM | 1.3 µM | 2.4 µM | 13 µM | 3.1 µM | 0.09 to 29 µM | 0.5 to 24 µM |  |  |  |  |  |  |  |  |  | 0.4 to 20 µM | 21 µM |  |
| O[C@@H](c1cc(C(F)(F)F)nc2c(C(F)(F)F)cccc12)C1CCCCN1 (stereo partly drawn) [P, (1S)-(2,8-bis(trifluoromethyl)quinolin-4-yl)(piperidin-2-yl)methanol] | 7 µM | 8.6 µM | 8.4 µM | 7.6 µM | 16 µM | 16 µM | 0.09 to 29 µM | 0.5 to 24 µM |  |  |  |  |  |  |  |  |  | 0.4 to 20 µM | 2.3 µM |  |
| CN(Cc1ccoc1)Cc1nnc(SCCOc2ccccc2)n1C [Compound G, 1-(furan-3-yl)-N-methyl-N-((4-methyl-5-((2-phenoxyethyl)thio)-4H-1,2,4-triazol-3-yl)methyl)methanaminium] | 9.7 µM | 29 µM | 15 µM | 0.39 µM | 32 µM | 4.3 µM | 0.09 to 29 µM | 0.5 to 24 µM |  |  |  |  |  |  |  |  |  |  |  |  |
